For assay [1], the system named is glutathione S-transferase 4 (gst-4) gene transcription. Briefly: In vivo gene activity assay (gst-4p::GFP reporter). The arrangement: species or system Caenorhabditis elegans. Conditions: GFP fluorescence; treated from L1 until late L4 stage. The source says: The transparent body of C. elegans allows for straightforward and non-invasive measurements of in vivo gene transcription via transgenic fluorescent reporters^9. We measured transcription of the gst-4p::GFP C. elegans GFP reporter to gain insight into the intracellular signaling networks that are affected by Met and/or Gal. Additionally, we tested whether Met and Gal have a synergistic or potentiating effect on activation of gst-4 gene transcription.
The gst-4 gene encodes for the cytoprotective and drug-metabolizing enzyme glutathione S-transferase 4 (GST-4). Gst-4 is a direct target of SKN-1, an ortholog of the mammalian Nuclear Factor E2-Related Factor (Nrf2) protein family that is a key transcription factor involved in the protection against oxidative and xenobiotic stresses. […] In C. elegans aging research, transcriptional activation of gst-4 is often used as a read-out for SKN-1 activity. […] GFP fluorescence was quantified using an automated method, as described earlier^11. In short: JMET69 animals with genotype ls[gst-4(1491 bp)::gfp;unc-119(+)];ls[unc-54^p::mCherry;unc-119(+)] were grown in the presence and absence of drugs (i.e. Met and/or Gal) on NGM plates seeded with E. coli OP50, from the L1 until the late L4 stage, before transfer to a 96 well plate for fluorescence quantification. […]

In assay [2] the test system is C. elegans sarcomere myofilaments. Nature of the assay: Quantifying muscle morphology and deterioration (myo-3p::MYO-3::GFP, strain RW1596). It counts as in vivo, Caenorhabditis elegans. Conditions: late adulthood (day 14). The source says:
Sarcomeres are fundamental muscle units, responsible for muscle contraction. C. elegans' sarcomeres consist of alternated filaments containing myosin and actin, similar to sarcomeres of vertebrates. While sarcomere myofilaments in the body wall of young animals are organized in parallel symmetric rows, sarcomere myofilaments in older animals become progressively disorganized with a more irregular shape and orientation.
By using a transgenic reporter strain that has a fusion of myosin heavy chain with fluorescent GFP (strain RW1596; myo-3p::MYO-3::GFP), muscle structure of C. elegans can be visualized in vivo. Combined with confocal microscopy and bioinformatic analysis this offers not only qualitative, but also quantitative readouts for the assessment of the organizational level of muscle fibers. An analytical method to quantify muscle deterioration has been optimized at the laboratory of Prof. Bart Braeckman (UGent; unpublished data). We used this technique to verify whether animals treated with Gal and/or Met, display a muscle phenotype resembling that of younger untreated individuals. […]
For each animal, the two morphological metrics ‘aspect ratio’ and ‘smoothness’ were extracted. […] The aspect ratio is calculated as the ratio of the length of the major axis (=length) and the length of the minor axis (=width) for individual myofilaments within a sarcomere. […]

Assay [3] concerns C. elegans. Nature of the assay: WorMotel-based locomotion tracking (single dosing). Format: in vivo, Caenorhabditis elegans. The note with it: for increase in maximal baseline activity compared to the untreated control: baseline = prior to blue light stimulus; for increase in total number of healthy days (locomotion-based health span) versus untreated control: days with activity >15% of mean maximal activity of untreated control. The method, then:
(§1) During the ‘single dosing assay’, we used the WorMotel platform for long-term recurrent imaging of C. elegans^3. This semi-automated platform allows for unbiased longitudinal monitoring of C. elegans aging phenotypes, including daily measurements of survival as well as locomotion quantification. From the onset of adulthood, animals were confined to individual wells in screening plates (i.e. microfabricated WorMotel chips prepared as described in^3) that were seeded with E. coli HT115(DE3) as a food source and supplemented with the corresponding compounds at different doses (Table 1). Four replicate screening plates were assayed, with all four tested conditions present on each screening plate (in randomized locations). Animals were kept on the same screening plates for the duration of the experiment (i.e. 30 days). The time of death is determined as the final time of nonzero movement. Note that this imaging platform is incompatible with repeated dosing. We used the statistical software R to construct Kaplan-Meier survival curves, calculate mean and median life span and carry out all related statistical analyses. To compare survival between two conditions, log-rank tests were used (i.e. survdiff function of the survival package, adjusted for multiple comparisons via the Benjamini-Hochberg method). The corresponding p-values are referred to as plog-rank.
(§2) Locomotion of C. elegans is characterized by sinusoidal movements (i.e. body bends), and progressively diminishes during adult life. As in other animals, maintenance of coordinated movement is considered a prime health span parameter^5.
Each imaging period, the mean and maximum locomotion activity before and after a blue light stimulus are quantified (as described in^3). The resulting activity values are termed ‘baseline locomotion’ and ‘stimulated locomotion’, respectively. […] An increase in ‘healthy days’ is indicative for an increase in locomotion-based healthspan. Results were analyzed using one-way and two-way ANOVAs, with the Holm-Sidak correction for multiple comparisons in GraphPad Prism software. All corresponding p-values are referred to as pANOVA.

For assay [4], the system named is wild-type C. elegans N2 strain. Briefly: Life span assay, single dosing (WorMotel platform). Format: in vivo, Caenorhabditis elegans. Conditions: for Decrease MLS versus combo Met25 + Gal100 / Increase MLS versus untreated control / Max LS / Median LS / survival compared to the untreated control: single dosing; for MLS ± SEM (mean life span): single dosing at first day of adulthood, pooled assays; for Max LS: day on which 10% of the animals are still alive; for Median LS: day on which 50% of the animals are still alive; for survival compared to the untreated control: log-rank test. As to the method:
(§3) The wild-type C. elegans N2 strain was obtained from the Caenorhabditis Genetic Center (University of Minnesota, USA) and was cultivated at 20° C. on standard nematode growth medium (NGM) seeded with a thin layer of Escherichia coli OP50, unless stated otherwise. Life span of C. elegans was measured analogous to methods described earlier^1,2. The first day of adulthood was always recorded as day 0. FUdR (5-fluoro-2′-deoxyuridine, Sigma-Aldrich) was used in all life span assays to avoid progeny production. Multiple independent assays were carried out. A minimum of 100 animals per condition per assay was used, as to ensure sufficient statistical power.
as §1

Assay [5] has as its system C. elegans. Briefly: Camera-based locomotion tracking (repeated dosing). Format: in vivo, Caenorhabditis elegans. Conditions: Table 2, day 7 post-reproductive adults; for Cell occupancy ± SEM: squares of 1 mm^2.
Excerpt: as §2
To quantify locomotion effects in more detail, we utilized an automated tracking system for C. elegans that is compatible with standard petri plates. The multi-camera tracking system allows for objective quantification of mean locomotion speed, maximal locomotion speed and multiple behavioral parameters via path-based image analysis. The system was utilized similar to Peymen et al^8. Two distinct assays were performed. In a first assay (Table 2), the locomotion effects of Gal, Met and a combination of both compounds was assayed. This allowed to test for synergetic effects between Gal and Met on multiple locomotion parameters. In a second assay (Table 3), we characterized the locomotion effects of the combination of Met with different acetylcholinesterase inhibitors (i.e. Gal, Don and Riv), as well as the combination of Met with the acetylcholinesterase inhibitor-like compound Mem. As such, we were able to test whether there is a class effect of acetylcholinesterase inhibitors as a whole (in combination with Met). Synchronized wild-type animals were grown in the presence of the corresponding compounds at different doses from the L4 stage (i.e. day 0) and FUdR, until the start of the measurement. Animals were re-dosed thrice (at day 2, 4 and 7) via transfer to fresh compound-treated NGM plates. Prior to imaging, for each replicate 20 well-fed living animals were manually transferred from their culture plate to an unseeded NGM plate, and after 5 min transferred to another unseeded NGM plate used for imaging. Image acquisition took place with StreamPix 6 multicamera software (GigE PRO GP11004M camera with KOWA LM16JC10M lens) for 11 min at 2 fps and a constant exposure, after which worms were tracked using custom particle-tracking MATLAB code. For each mobile animal (i.e. an animal that moved for at least 2 min during the imaging period), both mean and maximal locomotion speeds were extracted, as well as the behavioral metrics ‘cell occupancy’ and ‘fraction running’. The latter represents the fraction of time that an animal was detected to be running (as opposed to pausing or turning). Cell occupancy is a metric quantifying the spatial search efficiency of a worm. Cell occupancy values represent the number of unique cells (squares of 1 mm^2) that the worm visited during the imaging period. Both behavioral parameters decline during aging. Experiments were performed in triplicate (or quadruplicate), with 20 worms per condition per replicate. The results were analyzed using multiple t testing, with the Holm-Sidak correction for multiple comparisons, in GraphPad Prism software. The corresponding p-values are referred to as p.

In assay [6] the test system is wild-type C. elegans N2 strain. Briefly: Life span assay, repeated dosing (manual scoring on NGM agar plates). The note with it: for Decrease MLS versus combo Met25 + Gal100 / Increase MLS versus untreated control / Max LS / Median LS: repeated dosing; for MLS ± SEM (mean life span): repeated dosing from first day of adulthood; for Max LS: day on which 10% of the animals are still alive; for Median LS: day on which 50% of the animals are still alive. It counts as in vivo, Caenorhabditis elegans. The method, then: as §3
During the ‘repeated dosing assay’, we followed the standard method in the field (i.e. manual inspection of survival of age-synchronized populations on bacteria-coated agar plates^2), which is robust and technically relatively simple. In short, at the onset of adulthood, animals were transferred to standard NGM assay plates (untreated control) or NGM assay plates supplemented with the corresponding compounds at different doses (Table 1). Animals were transferred to fresh standard NGM assay plates or fresh NGM assay plates supplemented with the corresponding compounds at different doses thrice in the first week and weekly thereafter (for a total duration of 33 days). This dosing schedule is in accordance with standardized protocols from the Caenorhabditis Intervention Testing Program (CITP)^4. Met was added to the NGM prior to autoclaving, whereas Gal was pipetted onto the seeded assay plates (at least two hours prior to transferring animals on to the assay plates). A same volume of liquid was added to all plates, also to plates of the untreated control and Met condition (i.e. mock treatment). Animals that crawled off the assay plates or died of internal hatching were censored. The number of live and dead worms was scored every one to two days.

SMILES strings stand for the structures. Where a name gives a salt, the structure may show the parent alone. Marks after values point to notes of the source that are not given here.

With `COc1ccc2c3c1O[C@H]1C[C@@H](O)C=C[C@@]31CCN(C)C2` [Gal 100, Galantamine hydrobromide], the “gst-4 transcription level change compared to the untreated control” value in assay [1] was “+9%”. The “sarcomere aspect ratio versus untreated control (in words)” value in assay [2] is “no significant increases in aspect ratio”. Further, in the assay on C. elegans [3], the “increase in maximal baseline activity compared to the untreated control” value amounted to 15% and the “increase in total number of healthy days (locomotion-based health span) versus untreated control” value was “+20%”. For the same compound, in assay [4], the “Decrease MLS versus combo Met25 + Gal100” value is on record as −3.9% *, the “Increase MLS versus untreated control” value was “+12.8% ***”, the “MLS ± SEM (mean life span)” value is 19.63 ± 0.44 days and the “Max LS” value is given as 27 days. Besides, in assay [4], the “Median LS” value was determined as 20 days and the “survival compared to the untreated control” value is given as “significantly increased survival”. Moreover, in the assay on C. elegans [5], the “Fraction running ± SEM” value was 48 ± 2 ^NS %, the “Maximal speed ± SEM” value is listed as 270 ± 17 ^NS μm/s, the “Mean speed ± SEM” value is 48 ± 4 ^NS μm/s and the “Cell occupancy ± SEM” value is recorded as 11 ± 1 ^NS unique areas visited. In addition, in assay [6], the “Decrease MLS versus combo Met25 + Gal100” value is on record as −12.5% ****, the “Increase MLS versus untreated control” value is on record as “+6.8% *”, the “MLS ± SEM (mean life span)” value was 16.87 ± 0.32 days and the “Max LS” value was 22 days. The “Median LS” value in assay [6] turned out to be 17 days.
Regarding `CN(C)C(=N)NC(=N)N.Cl` [Met 25, 1,1-Dimethylbiguanide hydrochloride], in assay [1], the “gst-4 transcription level change compared to the untreated control” value was “+26%”. Also, the “sarcomere aspect ratio versus untreated control (in words)” value in assay [2] was “no significant increases in aspect ratio”. In addition, in the assay on C. elegans [3], the “increase in maximal baseline activity compared to the untreated control” value was found to be 35% and the “increase in total number of healthy days (locomotion-based health span) versus untreated control” value is “+14%”. In addition, in assay [4], the “Decrease MLS versus combo Met25 + Gal100” value is given as −6.7% *, the “Increase MLS versus untreated control” value is “+9.6% **”, the “MLS ± SEM (mean life span)” value was 19.08 ± 0.58 days and the “Max LS” value turned out to be 28 days. Moreover, in assay [4], the “Median LS” value was 20 days and the “survival compared to the untreated control” value is “significantly increased survival”. In the assay on C. elegans [5], the “Fraction running ± SEM” value is on record as 67 ± 2 %, the “Maximal speed ± SEM” value was 262 ± 8 ^NS μm/s, the “Mean speed ± SEM” value was determined as 102 ± 5 μm/s and the “Cell occupancy ± SEM” value is given as 28 ± 3 unique areas visited. Besides, in assay [6], the “Decrease MLS versus combo Met25 + Gal100” value is listed as −8.3%, the “Increase MLS versus untreated control” value is “+11.9% ****”, the “MLS ± SEM (mean life span)” value turned out to be 17.68 ± 0.50 days and the “Max LS” value is listed as 23 days. The “Median LS” value in assay [6] stood at 18 days.

(Values after patent US20210267918A1, “PHARMACEUTICAL COMBINATION FOR USE IN AGE-RELATED AND/OR DEGENERATIVE DISEASES” (priority 2018, published 2021).)
